Patent publication EP1056700B1, “MEDICINAL USES OF PHENYLALKANOLS AND DERIVATES” (ZingoTX Pty Ltd, priority 1997, dated 1999)
Values joined by “and” are separate entries in the source; they are usually repeats but may differ in a detail not shown here. Equal entries are not always repeated.

Key:
[1] = Brine shrimp toxicity bioassay; type: in vivo; details: Artemia salina (brine shrimp), in vivo; 24 hours, 2% DMSO
Text: The brine shrimp assay procedure determines LC50 values of active compounds. Activities of a broad range of known active compounds are manifested as toxicity to brine shrimp (Artemia salina Leach). There are many applications of the assay including analysis of toxic substances, anaesthetics, morphine-like substances and cocarcinogenicity of phorbol esters.
The method for testing solvent toxicity used was basically that reported by J L McLaughlin in Methods of Plant Biochemistry (1991), vol. 6 (K Hostettman, ed.), Academic Press, London, 1-32. DMSO solutions of the substances to be tested were added directly to the vials containing the brine shrimp. As the concentration of DMSO that we wished to use was higher than the recommended 1% v/v testing of the toxicity of the DMSO was therefore necessary. The concentrations of DMSO tested on the shrimp, along with the results from the assay which was done in duplicate are listed below.
Brine shrimp toxicity was assayed, except for some minor modifications, according to the method of McLaughlin et al as reported in Brine Shrimp: A convenient bioassay for active plant constituents, B N Meyer, N R Ferrigni, J E Putnam, L B Jacobsen, D E Nichols and J L McLaughlin in Planta Medica (1982), 45, 31-34 and Crown gall tumours on potato discs and brine shrimp lethality: Two simple bioassays for higher plant screening and fractionation. J L McLaughlin. Methods of Plant Biochemistry (1991), vol. 6 (K Hostettman, ed.), Academic Press, London, 1-32. Ten shrimp were transferred to each of the vials and the volume adjusted to 4.9 mL. Each dose was performed in triplicate, including the control. In quick succession, the appropriate volume of additional DMSO for each dose, required to achieve a final concentration of 2%, was added before the appropriate volume of test solution. The vials were gently mixed and the time noted. After 24 hours, the number of survivors were counted and % mortality was determined. The test compounds were assayed at concentrations of 100 µM, 25 µM, 5 µM, 1 µM and 0.2 µM (and where appropriate concentrations of 0.04 µM and 0.008 µM).
The brine shrimp were able to survive without food in the vials over the 24 hour period and were therefore not fed.
The dose-response curves were constructed using the Sigmaplot computer program and the LC50 value was calculated from the intersection point of the curve and the 50 % mortality line. The LC50 values were expressed in both µM and µg/mL.

[2] = tested on: brine shrimp (Artemia salina Leach); details: values determined by Meyer et al. (1982); cited from earlier work
[3] = target: T1, Lipoxygenase (LP) (Rattus norvegicus, UniProt P12527); test: Lipoxygenase assay with cell-free enzyme from RBL 2H3 cells (EIA); type: biochemical; details: final concentration of 10 µM
T1 construct: cell-free enzyme (Wong et al, 1991) prepared from rat basophilic leukemia (RBL) 2H3 cell lines; endogenous in cells; host or cells: RBL 2H3 (rat basophilic leukemia), 15,000 g supernatant of cells disrupted by nitrogen cavitation
T1 sequence (P12527 1-673): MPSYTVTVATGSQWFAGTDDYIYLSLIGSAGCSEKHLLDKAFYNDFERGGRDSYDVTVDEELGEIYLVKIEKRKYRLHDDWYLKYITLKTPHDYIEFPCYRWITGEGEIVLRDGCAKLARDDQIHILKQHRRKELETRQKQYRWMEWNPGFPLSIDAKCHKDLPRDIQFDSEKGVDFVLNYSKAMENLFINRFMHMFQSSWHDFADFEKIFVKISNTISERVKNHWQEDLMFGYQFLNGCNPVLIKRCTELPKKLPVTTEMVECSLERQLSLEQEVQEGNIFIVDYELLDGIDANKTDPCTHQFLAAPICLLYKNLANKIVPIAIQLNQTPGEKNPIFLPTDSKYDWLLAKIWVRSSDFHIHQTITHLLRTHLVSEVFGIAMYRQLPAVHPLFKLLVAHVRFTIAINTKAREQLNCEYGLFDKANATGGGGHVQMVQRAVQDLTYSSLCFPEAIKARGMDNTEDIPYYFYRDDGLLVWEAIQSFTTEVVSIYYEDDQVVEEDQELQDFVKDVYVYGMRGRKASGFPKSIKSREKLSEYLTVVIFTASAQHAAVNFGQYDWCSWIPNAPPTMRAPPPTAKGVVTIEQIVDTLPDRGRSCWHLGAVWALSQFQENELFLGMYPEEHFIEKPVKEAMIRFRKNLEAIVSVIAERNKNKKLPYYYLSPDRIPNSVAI
Experimental: Lipoxygenase (LP) assay was performed with cell-free enzyme (Wong et al, 1991) prepared from rat basophilic leukemia (RBL) 2H3 cell lines. Cells were cultured in EMEM containing 10% fetal calf serum and antibiotic until cells reached confluence. Harvested cells were resuspended in Hepes (10 mM) buffer, pH 7.4, containing 1 mM EDTA at 1 x 10^7 cells/ml, and disrupted by nitrogen cavitation using a Parr bomb at 750 psi for 15 min. The broken cells were centrifuged at 15,000 g for 30 min. Aliquots (0.1 ml) of the supernatant were preincubated with or without drugs in Hepes buffer (10 mM Hepes, pH 7, 1 mM EDTA and 150 mM NaCl) for 5 min, and the reaction was initiated with the addition of 50 µl of CaCl2 (16 mM), 50 µl of ATP (2 mM), 5 µl of PAF (2.5 mg/ml) and 5 µl of AA (2.5 mM). The reaction mixture ([…]) was incubated at room temperature for a further 8 min, then diluted with EIA buffer at 1/200 and 1/2000 dilutions and stored on ice for EIA following the protocol provided with the kit.
Validation of LP enzyme activity was carried out by a UV spectrophotometric method in which the enzyme activity was characterised against various concentrations of Ca^2+, ATP, PAF and AA with the measurement of the formation of diene conjugated products of LP at 235 nm.
All compounds were dissolved in DMSO and assayed at a final concentration of 10 µM. NDGA was used as reference compound. The concentration of DMSO in the assay was maintained at 1.5%.

[4] = tested on: Cyclo-oxygenase (COX); test: Cyclo-oxygenase assay in RBL 2H3 cells (PGD2 EIA); type: cell-based, rat; details: final concentration of 10 µM
Experimental: Cyclo-oxygenase (COX) assay was performed with cells in culture prepared from rat basophilic leukemia (RBL) 2H3 cell lines. Cells were cultured in EMEM containing 10% fetal calf serum and antibiotic until cells reached confluence. Harvested cells were subsequently seeded on 24-well plates at 1 x 10^6 cells/ml then incubated at 37°C for 3 hours. Cells were washed twice with incubation buffer (1.5 ml) containing 5 mM Hepes, 140 mM NaCl, 5 mM KCl, 0.6 mM MgCl2, 1 mM CaCl2 and […]. Cells were then covered with 0.49 ml of buffer, followed by addition of samples/solvents (0.005 ml) and incubated at 37 °C for 5 min on an orbital shaker. Arachidonic acid (0.005 ml, containing 50% EtOH) was subsequently added, and the plate was incubated at similar conditions for a further 10 min. The supernatant (0.1 ml) was aliquoted for methoxime derivatisation of PGD2, which was carried out by heating the supernatant with methoxime solution (1:1) at 60 °C for 30 min according to the instructions provided with the kit. The resultant solution was diluted with EIA buffer and stored on ice for EIA, following the protocol provided with the kit.
Validation of COX enzyme activity was carried out using EIA in which the enzyme activity was characterised against various concentrations of AA and a time course of enzyme activity.
[…] Indomethacin was used as reference compound. The concentration of DMSO in the assay was maintained at 1.5%.

[5] = tested on: Platelet rich plasma; test: Platelet aggregation: [^3H]-serotonin release from platelet rich plasma, arachidonic acid initiated; type: cell-based; details: Homo sapiens, activation by EC50 concentration of arachidonic acid
Experimental: Blood was collected from healthy volunteers who had taken no medication in the previous two weeks. The anticoagulant used was 3.8 % trisodium citrate. Platelet rich plasma was prepared and incubated with [^3H]-serotonin. This was followed by addition of gingerol analogues. Platelet activation was initiated using the EC50 concentration for arachidonic acid. The percentage of [^3H]-serotonin release was measured using a liquid scintillation counter. Then, dose-response curves were established and IC50 values were obtained.

[6] = tested on: DRG neuronal cells; test: Peak [Ca^2+]i transients in cultured dorsal root ganglion neurons (Fura-2); type: cell-based, rat; details: 10 µM applied for 1 min, 2 mM Ca^2+
Experimental: DRG from neonatal (3-5 days old) rat or adult Sprague-Dawley rats were incubated in Hanks CMF saline with 0.05% collagenase and 0.25% trypsin for 25 min at 37° C. Individual cells were obtained by trituration with fire polished Pasteur pipettes of diminishing diameters. Neurones were isolated from the cell suspension in 30% Percoll and then plated on collagen coated coverslips or in 24-well plates, then cultured in neurobasal medium with B27 supplement, 50 ng/ml 2.5 S nerve growth factor, 2 mM 1-glutamine and 100 U/ml penicillin/streptomycin. Cultures were maintained at 37° C with 5% CO2. 30% Percoll increases the percentage of capsaicin-sensitive DRG neurones up to 70%. For peak [Ca^2+]i transients measurements, cells on coverslips were incubated with 5 µM Fura-2 AM for 30 min at 37° C. The coverslips were then mounted on a chamber attached to a fast sample application perfusion system which allows changing solutions in the second range. Recordings were made on the stage of a Nikon Diaphot inverted microscope fitted with a Nikon 40 x Fluo (NA 0.85) DL Ph3 or 40 x Fluo (NA 1.3) oil objective. [Ca^2+]i was calculated from dual excitation wavelength (340/380 nm) fluorescence measurements following an intracellular calibration procedure by the Grynkiewicz equation, using MCID M2/M4 v.3.0 (Imaging Res. Inc.) software. Cells were continuously perfused with a solution consisting of 140 mM NaCl, 2 mM CaCl2, 5 mM KCl, 20 mM HEPES, 10 mM glucose, pH 7.4. To study KCl evoked depolarisation, 50 mM NaCl was replaced by equimolar KCl. Cytoplasmic localisation of Fura-2 was tested with the Mn^2+ quenching technique (Dedov and Roufogalis, 1998). All experiments were performed at room temperature (20-23°C).
Typical changes in [Ca^2+]i upon depolarisation were evoked by 50 mM KCl and by application of 1 µM capsaicin; both were applied for 30 sec. Capsaicin-evoked peak [Ca^2+]i transients are characterised by a fast rise and long-steady state [Ca^2+]i clearance from the cytoplasm. In capsaicin-sensitive cells the half-time of cytoplasmic Ca^2+ clearance was proportional to the amplitudes of peak [Ca^2+]i transients.
To examine the effect of gingerol derivatives, one or several compounds in succession at a concentration of 10 µM were applied for 1 min to the DRG neuronal cells followed by washing out for 4 min with physiological solution. To the capsaicin-sensitive cells, 10 µM capsaicin and 50 mM KCl were applied, respectively, to confirm the viability of the cells. In addition, morphological appearances of the cells were also examined at the end of experiment. […]

[7] = tested on: guinea pig atria; test: Organ bath assay on isolated guinea pig atria (rate and force of contraction); details: result in words, guinea pig atria
Experimental: Male guinea pigs, 3-4 weeks old, were killed by rapid cervical dislocation without induced anaesthesia. Then, the guinea pigs were dissected to isolate the atria which were immediately mounted vertically in an organ bath containing Krebs-Henseleit solution oxygenated with carbogen.
One gram tension was applied to the atria and the base line continuously adjusted until it was stable for 20 mins. The rate and force of contraction were recorded using Mac Lab equipment.
Test substances in DMSO were assayed to a maximum concentration of 50 µM at a final concentration of 2.5 % of DMSO.

[8] = tested on: rat mesenteric artery; test: Vasodilation on rat mesenteric small arteries
Text: Small arteries (200-300 µm in diameter) isolated from rat mesentery were precontracted with endothelin prior to addition of the test substances and tested for relaxation.

Row | activity at 10 µM [3] | IC50 [5] | Structure (SMILES) | Cyclooxygenase activity % activity [4] | Number of capsaicin-sensitive cells responding [6] | Peak [Ca^2+]i (Average ±SD) [6] | other results
1 |  |  | COc1cc([C@@H]2c3cc4c(cc3[C@H](O)[C@H]3COC(=O)[C@H]23)OCO4)cc(OC)c1OC [podophyllotoxin, reference compound] |  |  |  | LC50 at 24 h [1]: 3.8 µM and 1.6 µg/mL; LC50 [2]: 5.8 µM
2 | 83% | 69.4 ± 2.6 µM | CCCCCCCCCC(=O)C(O)c1ccc(O)c(OC)c1 (stereo not drawn) [1-hydroxy-1-(4-hydroxy-3-methoxyphenyl)undecan-2-one] | 16% |  |  | 
3 | 3% | 45.3 ± 1.6 µM | CCCCCCCCC(C)(O)CCc1ccc(O)c(OC)c1 (stereo not drawn) [3-methyl-1-(4-hydroxy-3-methoxyphenyl)undecan-3-ol] | 15% | 0 out of 4 | 0 nM | 
4 |  | 23.4 ± 1.7 µM | CC(=O)Oc1ccccc1C(=O)O [Aspirin, reference compound] |  |  |  | 
5 | 5% | 75.3 ± 3.1 µM | CCCCCCCCCCC(C)(O)CCc1ccc(O)c(OC)c1 (stereo not drawn) [3-methyl-1-(4-hydroxy-3-methoxyphenyl)tridecan-3-ol] |  |  |  | 
6 | 81% |  | CCCCCCCCCC(=O)CCc1ccc(O)c(OC)c1 [[8]-paradol, 1-(4-hydroxy-3-methoxyphenyl)dodecan-3-one, reference compound] | 11% | 1 | 200 nM | FORCE OF CONTRACT^n [7]: inactive; HEART RATE [7]: inactive; EC50 ([8]; Rattus norvegicus, relaxation of small arteries (200-300 µm) precontracted with endothelin): 0.05 µM; relaxation of rat mesenteric artery ([8]; result in words): showed potency
